Values joined by “and” are separate entries in the source; they are usually repeats but may differ in a detail not shown here. Identical values can stand only once.
What was measured:
Assay type in all cases: functional, Homo sapiens
TERT-RPE1 = test: (§1) Here: values are normalized to the negative (DMSO; defined as 0% autophagy induction) and positive (250nM Torin1; mTOR inhibitor; defined as maximal inducer of autophagy = 100%) control compounds and represented as % of autophagy induction. […] The impact of autophagy induction on cells is complex and depends on the affected target. As such, the magnitude of a phenotype may not be equally mirrored in the %-value of autophagy induction and vice versa. The dynamics of the induction may indicate the mode of activation: e.g. activation via phosphorylation or a signaling cascade may occur fast, while activation via transcription factors may take considerably longer. […] Of note, treatment concentrations may be sub-optimal for specific compounds, leading to false negative annotations.; settings: Culturing Media DMEM/F12 (1:1), 1 % Penicillin/Streptomycin, 10% Fetal bovin serum Add-On: No, Screening Media Control DMEM/F12 (1:1), Screening Media Samples DMEM/F12 (1:1)
U2OS [1] = test: as §1; settings: Culturing Media DMEM, 1 % Penicillin/Streptomycin, 10% Fetal bovin serum Add-On: No, Screening Media Control DMEM, Screening Media Samples DMEM
U2OS [2] = test: as §1; settings: Culturing Media DMEM, 1 % Penicillin/Streptomycin, 10% Fetal bovin serum Add-On: No, Screening Media Control DMEM, Screening Media Samples DMEM; remark: listed apart in the source
[3] = Compound Concentration 0.5 uM, Timepoint 12 hours
[4] = Compound Concentration 0.5 uM, Timepoint 24 hours
[5] = Compound Concentration 0.5 uM, Timepoint 36 hours
[6] = Compound Concentration 0.5 uM, Timepoint 60 hours
[7] = Compound Concentration 2 uM, Timepoint 12 hours
[8] = Compound Concentration 2 uM, Timepoint 24 hours
[9] = Compound Concentration 2 uM, Timepoint 36 hours
[10] = Compound Concentration 2 uM, Timepoint 60 hours
[11] = Compound Concentration 10 uM, Timepoint 12 hours
[12] = Compound Concentration 10 uM, Timepoint 24 hours
[13] = Compound Concentration 10 uM, Timepoint 36 hours
[14] = Compound Concentration 10 uM, Timepoint 60 hours

SMILES	autophagy induction (U2OS [1]; [3])	autophagy induction (U2OS [1]; [4])	autophagy induction (U2OS [1]; [5])	autophagy induction (U2OS [1]; [6])	autophagy induction (U2OS [1]; [7])	autophagy induction (U2OS [1]; [8])	autophagy induction (U2OS [1]; [9])	autophagy induction (U2OS [1]; [10])	autophagy induction (U2OS [1]; [11])	autophagy induction (U2OS [1]; [12])	autophagy induction (U2OS [1]; [13])	autophagy induction (U2OS [1]; [14])	autophagy induction (U2OS [2]; [3])	autophagy induction (U2OS [2]; [4])	autophagy induction (U2OS [2]; [5])	autophagy induction (U2OS [2]; [6])	autophagy induction (U2OS [2]; [7])	autophagy induction (U2OS [2]; [8])	autophagy induction (U2OS [2]; [9])	autophagy induction (U2OS [2]; [10])	other results
COc1ccc(S(=O)(=O)N2c3ccc(Cl)cc3[C@](O)(c3ccccc3Cl)[C@@H]2C(=O)N2CCC[C@H]2C(N)=O)cc1OC [RELCOVAPTAN]	-0.4488%	-3.182%	-42.6034%	-2.284%	-3.799%	-4.202%	-60.4871%	-1.266%	4.624%	2.3507%	-58.7044%	-2.271%	-8.786%	-9.572%	-12.5258%	-16.7068%	-3.79%	-9.305%	-13.7756%	-18.6617%	autophagy induction (TERT-RPE1; Compound Concentration 0.5 uM, Timepoint 12 hours, 12 h, 0.5 µM): -0.4521% and -5.349%; autophagy induction (TERT-RPE1; Compound Concentration 0.5 uM, Timepoint 24 hours, 24 h, 0.5 µM): -0.2273% and -4.727%; autophagy induction (TERT-RPE1; Compound Concentration 0.5 uM, Timepoint 36 hours, 36 h, 0.5 µM): -2.897% and -4.661%; autophagy induction (TERT-RPE1; Compound Concentration 0.5 uM, Timepoint 60 hours, 60 h, 0.5 µM): -4.347% and -7.0603%; autophagy induction (TERT-RPE1; Compound Concentration 2 uM, Timepoint 12 hours, 12 h, 2 µM): 0.8726% and -2.524%; autophagy induction (TERT-RPE1; Compound Concentration 2 uM, Timepoint 24 hours, 24 h, 2 µM): -1.739% and -2.756%; autophagy induction (TERT-RPE1; Compound Concentration 2 uM, Timepoint 36 hours, 36 h, 2 µM): -2.675% and -2.785%; autophagy induction (TERT-RPE1; Compound Concentration 2 uM, Timepoint 60 hours, 60 h, 2 µM): -4.303% and -2.0726%; autophagy induction (TERT-RPE1; Compound Concentration 10 uM, Timepoint 12 hours, 12 h, 10 µM): 0.7279% and 5.088%; autophagy induction (TERT-RPE1; Compound Concentration 10 uM, Timepoint 24 hours, 24 h, 10 µM): 4.093% and 9.7265%; autophagy induction (TERT-RPE1; Compound Concentration 10 uM, Timepoint 36 hours, 36 h, 10 µM): 6.165% and 16.6943%; autophagy induction (TERT-RPE1; Compound Concentration 10 uM, Timepoint 60 hours, 60 h, 10 µM): 11.326% and 28.0498%; autophagy induction (U2OS [2]; [11]): -6.744%; autophagy induction (U2OS [2]; [12]): -13.3744%; autophagy induction (U2OS [2]; [13]): -5.479%; autophagy induction (U2OS [2]; [14]): -4.839%
O=C(Cc1ccccc1)Nc1nc2ccc(Cl)cc2c2nc(-c3ccco3)nn12	-1.429%	-4.076%	-2.306%	0.1335%	-7.203%	-1.219%	-0.343%	-0.2104%	-51.1859%	-16.9004%	-8.178%	-3.011%	4.486%	1.051%	3.966%	7.125%	-5.124%	-1.574%	-4.263%	4.935%	autophagy induction (TERT-RPE1; [3]): -7.39%; autophagy induction (TERT-RPE1; [4]): -10.3716%; autophagy induction (TERT-RPE1; [5]): -15.7815%; autophagy induction (TERT-RPE1; [6]): -15.2628%; autophagy induction (TERT-RPE1; [7]): -6.9816%; autophagy induction (TERT-RPE1; [8]): -7.632%; autophagy induction (TERT-RPE1; [9]): -7.871%; autophagy induction (TERT-RPE1; [10]): -12.6626%; autophagy induction (TERT-RPE1; [11]): -9.4005%; autophagy induction (TERT-RPE1; [12]): 10.615%; autophagy induction (TERT-RPE1; [13]): 24.2695%; autophagy induction (TERT-RPE1; [14]): 38.8225%; autophagy induction (U2OS [2]; [11]): -2.171%; autophagy induction (U2OS [2]; [12]): -3.2492%; autophagy induction (U2OS [2]; [13]): 0.6441%; autophagy induction (U2OS [2]; [14]): 10.7185%

Source: ChEMBL document CHEMBL5724696, “Autophagy assay results for EUbOPEN Chemogenomics Library” (2024)
